Test results taken from publication PMC5923142, “Selection and Characterization of Rupintrivir-Resistant Norwalk Virus Replicon Cells In Vitro” (Antimicrobial Agents and Chemotherapy, 2018).
“Also recorded” adds a separate entry of the source.

Legend:
[1] = in vitro; format: cell-based; settings: human; HGT-NV cells, 72 h, resazurin; read-out: 50% cytotoxic concentration (CC50)
Description: The cell cytotoxicity of rupintrivir against HGT-NV cells was determined by a resazurin assay ([39]). Briefly, subconfluent HGT-NV cells in 96-well plates were treated with various concentrations of rupintrivir and then incubated for 72 h in a CO2 incubator at 37°C. After incubation, the supernatant was removed and the cells were washed with PBS, and then complete DMEM containing resazurin (0.1 mg/ml) was added to the cells. After 4 h of incubation, the optical density at 560 nm with a 620-nm optical density reference was determined by using a SpectraMax i3 instrument (Molecular Devices). The 50% cytotoxic concentration (CC50) values of rupintrivir were calculated using XLfit (version 5.3) software.

[2] = system: Norwalk virus replicon; test: Colony formation assay with HGT-NV cells after 12 days of treatment; format: cell-based, Human norovirus (HuNoV) GI; settings: then 1 week G418 1.5 mg/ml without drug
Description: HGT-NV cells treated with rupintrivir or DMSO for 12 days in the absence of G418 were plated into 6-well plates in complete DMEM and maintained without rupintrivir in the presence of G418 (1.5 mg/ml). After 1 week of incubation, the colonies on the plate were stained with 0.1% toluidine blue and photographed.

[3] = biological target: T1, GI A105V/I109V mutant protease (Norovirus, UniProt Q83883, A1205V/I1209V); test: Cell-based FRET assay, GI A105V/I109V protease; set-up: species or system norovirus GI.1 (M87661)
T1 construct: plasmids expressing norovirus protease from GI.1 (M87661); expressed in transfected cells; host or cells: HEK293T
T1 sequence (Q83883 1101-1281 A1205V/I1209V): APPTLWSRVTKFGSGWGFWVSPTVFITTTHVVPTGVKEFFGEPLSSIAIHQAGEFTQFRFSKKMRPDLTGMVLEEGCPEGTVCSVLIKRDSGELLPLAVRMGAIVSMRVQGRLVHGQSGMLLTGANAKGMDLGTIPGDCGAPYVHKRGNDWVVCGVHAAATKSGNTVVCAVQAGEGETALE
Text: (§1) The generation of plasmids expressing norovirus protease from GI.1 (M87661), GII.4 (DQ658413), or GV (DQ285629) norovirus and FRET assay constructs has been described previously ([18]). The plasmids carrying GI, GII, and GV proteases with the A105V, I109V, or A105V/I109V mutation were generated from the wild-type (WT) protease constructs described above by the QuikChange site-directed mutagenesis method. Mutant MNV genomes for reverse genetics were generated by two-step PCR mutagenesis of the WT MNV genome (pT7 MNV 3RZ) construct as described previously ([27]). The primers used for generation of the plasmids are listed in Tables S1 and S2 in the supplemental material.
(§2) The YFP/CFP ratio was used to determine FRET efficiency, as described previously ([18], [40]). Briefly, HEK293T cells were plated into black 96-well cell culture microplates (Greiner Bio-One) at a density of 5 × 10^4 cells/well in 100 μl of DMEM containing 10% fetal bovine serum with or without various concentrations of rupintrivir and then incubated for 4 h in a CO2 incubator at 37°C. […] The plates were then analyzed on a SpectraMax i3 instrument in fluorescence mode, with excitation set at 434 nm and the reading emissions set at 477 nm (CFP) and 527 nm (YFP). The background fluorescence from wells transfected with pcDNA3.1 was determined and subtracted. […]

[4] = system: GII protease; test: Cell-based FRET assay, GII WT protease; set-up: species or system norovirus GII.4 (DQ658413); settings: compared with GI and GV WT proteases, HEK293T cells
Text: as §1, §2

[5] = system: GII mutant proteases; test: Cell-based FRET assay, GII mutant proteases (A105V, I109V, A105V/I109V); set-up: species or system norovirus GII.4 (DQ658413); settings: A105V/I109V vs GII WT, HEK293T cells
Text: as §1, §2

[6] = biological target: T2, GV I109V mutant protease (Norovirus, UniProt Q80J95, I1103V); test: Cell-based FRET assay, GV I109V protease; set-up: species or system murine norovirus (MNV) GV (DQ285629)
T2 construct: plasmids expressing norovirus protease from GI.1 (M87661), GII.4 (DQ658413), or GV (DQ285629) norovirus; expressed in transfected cells; host or cells: HEK293T
T2 sequence (Q80J95 995-1177 I1103V): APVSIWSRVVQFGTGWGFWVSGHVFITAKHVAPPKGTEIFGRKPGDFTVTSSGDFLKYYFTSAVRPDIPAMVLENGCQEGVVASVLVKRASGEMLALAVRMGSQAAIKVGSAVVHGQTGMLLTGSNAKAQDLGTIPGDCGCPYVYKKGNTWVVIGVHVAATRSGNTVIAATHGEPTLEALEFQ
Text: as §1, §2

[7] = biological target: T3, MNV A105V/I109V protease (polyprotein) (Norovirus, UniProt Q80J95, A1099V/I1103V); test: In vitro translation, MNV polyprotein processing, A105V/I109V protease; format: biochemical, murine norovirus; settings: 80 μM, rabbit reticulocyte lysate
T3 construct: in vitro-transcribed MNV full-length capped RNA containing either the WT or mutant proteases; made in house; host or cells: rabbit reticulocyte lysate (Flexi system, Promega), in vitro translation
Description: FIG 4 Impact of rupintrivir resistance-conferring mutations on MNV polyprotein processing in vitro. In vitro translation reactions were programmed with equal quantities of in vitro-transcribed MNV full-length capped RNA containing either the WT or mutant proteases in the presence and absence of 80 μM rupintrivir. The [^35S]methionine-labeled products were subsequently analyzed by SDS-PAGE and phosphorimaging analysis. The percentage of fully processed NS3, determined on the basis of the expected molecular mass of the proteins, was calculated and expressed relative to the total amount of viral protein produced.
In vitro translation reactions were performed using a Flexi rabbit reticulocyte lysate system (Promega). The reaction mixtures were prepared according to the manufacturer's instructions as described for capped mRNAs and programmed with 1 μg of RNA per 25-μl reaction mixture. The reaction mixtures were incubated at 30°C for 90 min prior to the addition of an equal volume of SDS-PAGE sample buffer. Samples were subsequently resolved on a 12.5% SDS-polyacrylamide gel before exposure to a phosphorimager screen.

[8] = system: HRV2 N165T; set-up: method as in PMID 17908951; settings: serial passage of HRV2 for 62 days; cited from earlier work
[9] = system: HRV2 N165T/E3G or N165T/A103V; set-up: method as in PMID 17908951; settings: serial passage of HRV2 for 62 days; cited from earlier work

In the case of CCOC(=O)/C=C/[C@H](C[C@@H]1CCNC1=O)NC(=O)[C@@H](CC(=O)[C@@H](NC(=O)c1cc(C)on1)C(C)C)Cc1ccc(F)cc1 [rupintrivir, Rupintrivir], the CC50 [1] is reported as over 100 µM, the colony formation ([2]; 2.5 μM for 12 days) is reported as “some colonies remained” and the colony formation ([2]; 5 μM for 12 days) is reported as “some colonies remained”. For the same compound, the colony formation ([2]; 10 μM for 12 days) was “completely prevent colony formation”, the IC50 ([3]; HEK293T cells, GI NS1/2-NS3 FRET substrate) was 6.6 ± 1.2 µM and the “fold increase in IC50” value ([3]; vs GI WT protease) was 5.1 fold. For the same compound, the “susceptibility of the protease to rupintrivir” value [4] was “substantially lower”, the “effect of substitutions on the IC50” value [5] was “no measurable effect; also recorded: no significant differences” and the IC50 ([6]; HEK293T cells, GV NS1/2-NS3 FRET substrate) was 2.7 ± 0.6 µM. For the same compound, the “fold increase in IC50” value ([6]; vs GV WT protease) was 2.7 fold, the “polyprotein processing (mature NS3)” value [7] was “still able to produce mature NS3” and the fold reduced susceptibility [8] was 2 fold. The fold reduced susceptibility [9] was 5 fold.
